The values that follow come from US11691992B2 (Anacor Pharmaceuticals, Inc., priority 2017, dated 2023).

Common to all, as to format: cell-based
Experiment [1] concerns T. cruzi Tulahuen strain C2C4 containing the β-galactosidase (Lac Z) gene in rat skeletal myoblasts (L-6 cells). Put plainly: Trypanosoma cruzi C2C4 screening assay. The conditions noted are these: L6, 96 h, read-out: SCYNEXIS IC50: I Org. Growth T. cruzi Tulahuen C2C4 Lac Z, 4 d [uM]. As to the method:
Example 113: Trypanosoma cruzi C2C4 Screening Assay Procedure
Rat skeletal myoblasts (L-6 cells) were seeded in 96-well microtiter plates at 2×10^3 cells/well in 100 μL RPMI 1640 medium with 10% FBS and 2 mM L-glutamine. After 24 h the medium was removed and replaced by 100 μL per well containing 5×10^3 trypomastigote forms of T. cruzi Tulahuen strain C2C4 containing the β-galactosidase (Lac Z) gene (Buckner, et al., Antimicrobial Agents and Chemotherapy, 40: 2592-2597 (1996)). After 48 h the medium was removed from the wells and replaced by 100 μL fresh medium with or without a serial drug dilution of the seven 3-fold dilution steps covering a range from 90 to 0.123 μg/mL. After 96 h of incubation the plates were inspected under an inverted microscope to assure growth of the controls and sterility. The substrate (50 μL) chlorophenol red-β-D-galactopyranoside (CPRG, Roche Diagnostics, Ltd) in 0.25% Nonidet P-40/PBS was added to all wells and a color reaction developed within 2-6 h which was read photometrically at 540 nm. Data were transferred into the graphic program Softmax Pro (Molecular Devices), which calculated IC50 values.

The test system of experiment [2] is bloodstream-form trypanosome T. brucei brucei 427 strain. The experiment can be described thus: Trypanosoma brucei brucei high-throughput screening assay (resazurin). The conditions noted are these: 72 h, read-out: IC50: I Org. Growth T. brucei brucei SBRI 427, 3 d [uM]. As to the method: Example 105. Trypanosoma brucei brucei High-Throughput Screening Assay Procedure
All experiments were conducted with the bloodstream-form trypanosome T. brucei brucei 427 strain obtained from Seattle Biomedical Research Institute (Seattle, Wash.). Parasites were cultured in T-25 vented cap flasks and kept in humidified incubators at 37° C. and 5% CO2. The parasite culture media was complete HMI-9 medium containing 10% FBS, 10% Serum Plus medium and penicillin/streptomycin. To ensure log growth phase, trypanosomes were sub-cultured at appropriate dilutions every 2-3 days. Approximately 50 microliters of log phase cultures were diluted 1:10 in HMI-9 and 10 μL of the diluted culture was removed and counted using a hemocytometer to determine parasite concentration. Parasites were diluted by addition of an appropriate volume of HMI-9 to achieve a final parasite concentration of 2×10^5/mL. Compounds of the invention to be tested were serially diluted in DMSO and 0.5 μL added to 49.5 μL HMI-9 in triplicate 96-well plates using a Biomek NX liquid handler. Parasites from the diluted stock were added to each well (50 μL) using a Multidrop 384 dispenser to give a final concentration of 1.0×10^5/ml parasites in […] for DMSO. Trypanosomes were incubated with compounds for 72 hrs at 37° C. with 5% CO2. Resazurin (20 μL of 12.5 mg/ml stock) from Sigma-Aldrich was added to each well and plates were incubated for an additional 2-4 hrs. Assay plates were read using an EnVision plate reader at an excitation wavelength of 544 nm and emission of 590 nm. Triplicate data points were averaged to generate sigmoidal dose response curve and determine IC50 values using XLfit curve fitting software from IDBS (Guildford, UK).

For experiment [3], the system named is luciferase-expressing L. major parasites developing intracellularly inside RAW 264.7 macrophages. Put plainly: Leishmania major intracellular amastigote assay in RAW 264.7 macrophages (luciferase). To be noted: RAW264.7, 96 hours, read-out: IC50: I Org. intracellular amastigote Growth L. major, 4 d. The procedure, abridged:
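RAW 264.7 macrophages infected overnight with luciferase-expressing L. major promastigotes, washed of extracellular parasites, then exposed to two-fold compound dilutions (final 0.5-10,000 ng/ml) for 96 h at 37° C, 5% CO2. Luciferin luminescence after 30 min; IC50 by sigmoidal variable-slope regression.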

In experiment [4] the test system is TdTomato-modified T. cruzi (CL strain) in Vero cells. The experiment can be described thus: In vitro IC50 measurement of T. cruzi amastigote killing using TdTomato-modified T. cruzi (CL strain). The conditions noted are these: Trypanosoma cruzi, 72 h, fluorescence, read-out: IC50: I Org. amastigote Growth T. cruzi CL TdTomato, 3 d. The procedure, abridged:
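Vero cells were infected with tdTomato-expressing CL-strain parasites and dosed at 5 uM–5 nM. Fluorescence (ex 544/em 612 nm) was read at day 0 and again after 72 h at 37 °C, with day 0 values subtracted. IC50 and IC90 came from nonlinear regression.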

Turning to `O=C(Nc1ccc2c(c1)B(O)OC2)c1cn(-c2ccccc2)nn1` [Example 66, N-(1-hydroxy-1,3-dihydrobenzo[c][1,2]oxaborol-6-yl)-1-phenyl-1H-1,2,3-triazole-4-carboxamide], the IC50 (usually the concentration that gives 50% inhibition) in experiment [1] was 0.06 to 0.1 µM; in experiment [2], 0.075 to 0.15 µM; in experiment [3] it was at most 1000 nM; in experiment [4], under 600 nM.
`Cc1c(C(=O)Nc2ccc3c(c2)B(O)OC3)nnn1-c1ccc(F)cc1` [Example 86, 1-(4-fluorophenyl)-N-(1-hydroxy-1,3-dihydrobenzo[c][1,2]oxaborol-6-yl)-5-methyl-1H-1,2,3-triazole-4-carboxamide]: the values for the IC50 in experiment [1], in experiment [2] and in experiment [4] were 0.11 to 1 µM, 0.075 to 0.15 µM and 600 to 1000 nM, respectively.
